Measured values from US9974763B2, “Modulators of intracellular chloride concentration for treating neurodegenerative diseases with Parkinsonian Syndromes” (B & A THERAPEUTICS, priority 2013, dated 2018).
Read-outs that look alike come from different tables or passages of the source.

Tests used:
[1] = system: patient suffering from Parkinson's disease; conditions: for UPDRS motor severity score (III) in the OFF stage: after 2 months of bumetanide, last four weeks at 5 mg/d; for UPDRS II OFF (activities of daily leaving, worst condition) score: at the end of the study
Source text: A person, suffering from a 10-year history of Parkinson's disease was included in an open-labeled trial assessing the antiparkinsonian effects of bumetanide. They gave their informed consent to participate. The patient fulfilled the modified Queen's Square Brain Bank criteria of Parkinson's disease (Berardelli et al., 2013). […] Parkinson's disease was at the stage of motor fluctuation and dyskinesia. The OFF periods (bad mobility) lasted for an average of 25-50% of the awakened time. Dyskinesia was mild and intermittent. There was no marked balance impairment or cognitive decline. Antiparkinsonian treatment consisted in: L-DOPA 1,200 mg/d (7 intakes/d), ropinirole 4 mg/d, rasagiline 1 mg/d, tolcapone 300 mg/d. They also received mianserine, citalopram and alprazolam for concomitant anxiety and depression. Bumetanide was progressively titrated up to 3 mg/d (once daily) received for a month. […] The patient was assessed before, 1 month and 2 months after the initiation of bumetanide. At each visit, the patient was asked about any side effects having occurred since the last visit. […] The antiparkinsonian treatment was unchanged during the study. A person, having a 8-year history of Parkinson's disease was included in an open-labeled trial assessing the antiparkinsonian effects of bumetanide. The OFF periods (bad mobility) lasted for an average of 25-50% of the awakened time. Antiparkinsonian treatment consisted in: L-DOPA 625 mg/day (5 intakes/day), entacapone 1,000 mg/day, ropinirole 12 mg/day. Bumetanide: was progressively titrated up to 3 mg/day (once daily) received for a month. […] The patients were assessed before, 1 month and 2 months after the initiation of bumetanide. At each visit, the patient was asked about any side effects having occurred since the last visit. […] The antiparkinsonian treatment was unchanged during the study.

[2] = system: GABAA sPSCs in Medium Spiny Neurons (MSNs) of the striatum in Pink 1 knockout mice; experiment: Whole-cell voltage-clamp recordings of spontaneous GABAA currents in basal ganglia slices before and during bath application of bumetanide; format: cell-based, mouse; conditions: for effect on the giant GABAergic pattern (in words): 10 μM; for area gigantic pattern (% of the total area) / giant GABAA sPSCs share of total current charge, Mean: before bumetanide 38±5%; for Giants Amplitude, Mean: P=0.01 vs before bumetanide
Description: Pink 1 knockout (Pink1 −/−) mouse is a genetic model of Parkinson's disease.
Pink1 −/− mutant mice of either sex at age 5-7 months were intracardially perfused with the choline solution (see below) at 4° C. and sacrificed by decapitation under halothane anesthesia. Oblique parasagittal slices (380 μm thick) were cut with an angle of 10±2° to obtain the basal ganglia slice (BGS) as described in (Beurrier et al., 2006). For the slicing procedure, the ice-cold oxygenated solution contained (in mM) 110 choline, 2.5 KCl, 1.25 NaH2PO4, 7 MgCl2, 0.5 CaCl2, 25 NaHCO3, 7 glucose. During the recovery period, BGS were placed at room temperature with standard artificial cerebrospinal fluid (ACSF) saturated with 95% O2 5% CO2 and containing (in mM): 126 NaCl, 3.5 KCl, 1.2 NaH2PO4, 1.3 MgCl2, 2 CaCl2, 25 NaHCO3, 11 glucose.
All recordings were made at 32° C. Cells were visualized with infrared-differential interference optics (Axioskop2, Zeiss). For whole-cell voltage-clamp recordings of postsynaptic GABAA currents, the pipette (6-10 MΩ) contained (in mM): 128.5 K-gluconate, 11.5 KCl, 1 CaCl2, 10 EGTA, 10 HEPES, 2.5 MgATP and 0.3 NaGTP, pH 7.32, 280 mOsm. The KGlu pipette solutions gave a reversal potential for chloride close to −63 mV at 35° C. Biocytin (Sigma, 5 mg/ml) was added to the pipette solution and osmolarity corrected when necessary. We performed patch-clamp recordings in whole cell configuration using the Digidata 1344A interface, the Multiclamp 700A amplifier and PClamp8 software (Axon Instruments, Foster City, Calif.). We identified medium spiny neurons (MSNs) during recordings based on their typical rectification during hyperpolarizing steps and their firing delay in response to depolarizing steps. MSNs were also identified by their morphological characteristics after the recording session (see immunocytochemistry). We measured spontaneous GABAA currents (GABAA sPSCs) from MSNs in voltage clamp mode at the reversal potential for glutamatergic (+10 mV) events (Cossart et al., 2000). These currents were stored on Pclamp8 (Axon Instruments, Foster City, Calif., USA) and analyzed off-line with Mini Analysis program (Synaptosoft 6.0, CA, USA), Clampfit 9.2, Origin 5.0 and Autosignal 1.7 to determine the frequency and amplitude of GABAA sPSCs. All detected currents were then visually inspected to reject artefactual events.
We defined as a burst a minimum of five sPSCs associated with a baseline elevation. More than five giant events and three bursts were required during the three min analysis for the pattern to be deemed “oscillatory”. The current charge was automatically calculated by the Mini Analysis Software as the area under the curve value (taking the onset, peak and decay time points as references for each event).
GABAA sPSCs were recorded from identified MSNs before and during bath application of Bumetanide.
For statistical comparison of data we performed paired t-tests. Error bars indicate SEM. ***P<0.001; ns (non-significant).

[3] = system: GABAA sPSCs in Medium Spiny Neurons (MSNs) of the striatum in Pink 1 knockout mice; conditions: Dehorter et al 2012; cited from earlier work
[4] = bumetanide 10 μM, 15-30 min, Pink1 KO MSNs
[5] = bumetanide 10 μM, 15-30 min, Pink1 KO MSNs, listed as Bume
[6] = bumetanide 10 μM, 15-30 min, n=42 events
[7] = bumetanide 10 μM, 15-30 min, three min analysis

## CCCCNc1cc(C(=O)O)cc(S(N)(=O)=O)c1Oc1ccccc1 [Bumetanide, bumetanide]
[1]; human, in vivo
  dyskinesia: no worsening
[1]; patient 1
  overall improvement evaluated by the patient and the caregiver: about 30%
[1]; patient 1, 2 months vs before treatment
  improvement (decrease) of UPDRS motor (III) score in the OFF stage: 34%
[1]; patient 1, 44 before treatment
  UPDRS motor severity score (III) in the OFF stage: 29
[1]; patient 1, after 2 weeks at 5 mg/d
  motor condition / Parkinsonism as noticed by the patient and their caregiver: marked improvement
[1]; patient 1, after 2 weeks at 5 mg/d, baseline 25-50%
  OFF time duration: less than 25 % of the awakened time
[1]; patient 1, 30 at baseline
  UPDRS II OFF (activities of daily leaving, worst condition) score: 18
[1]; patient 1, end of study vs baseline
  improvement (decrease) of UPDRS II in the worst condition: 40%
[1]; patient 1, score 0
  UPDRS II in the best condition: unchanged
[1]; patient 2, 2 months vs before treatment
  improvement of UPDRS motor severity score (III) in the OFF stage: 56%
[1]; patient 2, 2 vs 3
  UPDRS II in the best condition: unchanged
[1]; patient 2, 25 before treatment
  UPDRS motor severity score (III) in the OFF stage: 11
[1]; patient 2, 15 at baseline
  UPDRS II OFF (activities of daily leaving, worst condition) score: 10
[1]; patient 2, end of study vs baseline
  improvement of UPDRS II in the worst condition: 33%
[2]; 15-30 min, Pink1 KO MSNs
  effect on the giant GABAergic pattern (in words): blocked the giant pattern
[2]; 15-30 min, Pink1 KO MSNs, listed as bumetanide
  effect on the giant GABAergic pattern (in words): block these gigantic currents completely
[2]; bath application, final concentration 10 μM
  time of treatment after which the effect was stable: 15 min
[2]; bumetanide 10 μM bath, 15-30 min, Pink1 KO MSNs with giant pattern, VH=+10 mV
  TOTAL AREA, Mean: 290 pA · ms
[2]; bumetanide 10 μM, 15-30 min
  Pink1 KO MSNs showing giant GABAA PSCs in which the block was observed: 10/10
  effect on bursts of GABAA sPSCs (in words): totally disappeared
[2]; bumetanide 10 μM, 15-30 min, P=0.02 vs before bumetanide
  mean frequency of single giant GABAA sPSCs: 0.10±0.05 Hz
[2]; [4]
  Tonic pattern: Amplitude of GABAA PSCs, Mean: 36±4 pA
  Tonic pattern: Frequency of GABAA PSCs, Mean: 2.9±0.5 Hz
[2]; bumetanide 10 μM, 15-30 min, Pink1 KO MSNs, before bumetanide 566±74
  mean total current charge: 290±70 nA·ms
[2]; [5]
  Tonic pattern: Amplitude of GABAA PSCs, Mean: 36.0 pA
  Tonic pattern: Frequency of GABAA PSCs, Mean: 2.9 Hz
[2]; bumetanide 10 μM, 15-30 min, before 62±5%, P=0.0003
  basal events between giants, share of the total current charge: 90±3%
[2]; bumetanide 10 μM, 15-30 min, P=0.0003
  area gigantic pattern (% of the total area) / giant GABAA sPSCs share of total current charge, Mean: 11.7±3.9%
[2]; bumetanide 10 μM, 15-30 min, P=0.0003, listed as Bume
  area gigantic pattern (% of the total area) / giant GABAA sPSCs share of total current charge, Mean: 11.7%
[2]; [6]
  range of amplitude of single giant GABAA sPSCs: 203-593 pA
  Giants Amplitude, Mean: 338.2±22.5 pA
[2]; bumetanide 10 μM, 15-30 min, n=42 events, listed as Bume
  Giants Amplitude, Mean: 338.2 pA
[2]; bumetanide 10 μM, 15-30 min, table value, unit not given
  Giants Frequency, Mean: 0.10
[2]; [7]
  n bursts, Mean: 0.2
  n giants (>200 pA), Mean: 5.6
[2]; bumetanide 10 μM, 15-30 min vs before bumetanide, P=0.0002
  decrease of the mean total current charge: 49%
[2]; bumetanide 10 μM, versus 237 before bumetanide
  number of individual giant GABAA sPSCs still present during the three-minutes sequence analyzed: 42 events

## N[C@@H](Cc1ccc(O)c(O)c1)C(=O)O [L Dopa]
[3]
  effect on the gigantic current pattern (in words): alleviate this pattern
